Reference: patent US12723063B2, “GIPR-agonist compounds” (Eli Lilly and Company, priority 2019, dated 2026)
*1 amine or outer side, *2 acyl side, *3 side chain or, on linkers, in order; H or OH if unused. Where a SMILES comes first, the peptide text is derived from it. Side-chain parts run from the residue outwards. [ ]: non-standard residue; d: D form. The star is where a group is joined. C20 diacid = O=C(O)CCCCCCCCCCCCCCCCCCC(=O)*; αMePhe(2-F) = C[C@](N)(Cc1ccccc1F)C(=O)O; γGlu = O=C(O)[C@H](CCC(=O)[*:2])N[*:1]; 4Pal = N[C@@H](Cc1ccncc1)C(=O)O; αMeL = CC(C)C[C@](C)(N)C(=O)O; AEEA = NCCOCCOCC(=O)O; Aib = CC(C)(N)C(=O)O

Assays:
Test in all cases: cAMP functional assay (HTRF) in HEK293 cells in presence of 0.1% casein
Type in all cases: cell-based
[1] = biological target: T1, human GLP-1 receptor (GLP-1R) (Homo sapiens, UniProt P43220); details: HEK293 cells expressing human GLP-1R, geometric mean, read-out: hGLP1R cAMP Rel EC50 nM (SEM, n)
T1 construct: expressed in transfected cells; host or cells: HEK293
T1 sequence (P43220 24-463): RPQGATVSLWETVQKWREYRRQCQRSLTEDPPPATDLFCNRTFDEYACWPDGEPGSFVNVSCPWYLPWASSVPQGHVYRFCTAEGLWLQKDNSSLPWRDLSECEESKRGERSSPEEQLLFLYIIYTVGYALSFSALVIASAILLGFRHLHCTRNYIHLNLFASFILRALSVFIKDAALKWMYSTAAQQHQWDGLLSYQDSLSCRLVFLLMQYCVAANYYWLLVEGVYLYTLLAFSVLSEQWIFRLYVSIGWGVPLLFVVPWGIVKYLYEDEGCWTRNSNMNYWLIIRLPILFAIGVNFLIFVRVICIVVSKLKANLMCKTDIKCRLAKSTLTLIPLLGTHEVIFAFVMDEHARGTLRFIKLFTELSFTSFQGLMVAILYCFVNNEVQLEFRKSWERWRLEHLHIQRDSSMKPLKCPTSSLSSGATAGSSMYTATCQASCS

[2] = biological target: T2, human glucose-dependent insulinotropic peptide receptor (GIPR) (Homo sapiens, UniProt P48546); details: HEK293 cells expressing human GIPR, geometric mean, read-out: hGIPR cAMP Rel EC50 nM (SEM, n)
T2 construct: expressed in transfected cells; host or cells: HEK293
T2 sequence (P48546 22-466): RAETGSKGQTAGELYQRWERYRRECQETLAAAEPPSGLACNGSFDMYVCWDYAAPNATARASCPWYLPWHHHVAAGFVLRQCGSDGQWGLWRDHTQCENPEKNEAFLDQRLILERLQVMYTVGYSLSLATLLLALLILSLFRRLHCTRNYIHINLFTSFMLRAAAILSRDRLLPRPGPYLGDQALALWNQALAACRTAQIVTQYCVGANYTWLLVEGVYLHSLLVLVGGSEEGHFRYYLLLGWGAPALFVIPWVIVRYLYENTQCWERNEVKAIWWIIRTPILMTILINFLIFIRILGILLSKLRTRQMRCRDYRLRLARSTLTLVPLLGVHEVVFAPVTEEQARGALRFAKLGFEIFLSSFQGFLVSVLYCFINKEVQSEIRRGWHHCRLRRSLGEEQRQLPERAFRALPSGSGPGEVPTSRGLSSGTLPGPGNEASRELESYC

[3] = biological target: T3, human glucagon receptor (GcgR) (Homo sapiens, UniProt P47871); details: HEK293 cells expressing human GcgR, geometric mean, read-out: hGcgR cAMP Rel EC50 nM (SEM, n)
T3 construct: expressed in transfected cells; host or cells: HEK293
T3 sequence (P47871 26-477): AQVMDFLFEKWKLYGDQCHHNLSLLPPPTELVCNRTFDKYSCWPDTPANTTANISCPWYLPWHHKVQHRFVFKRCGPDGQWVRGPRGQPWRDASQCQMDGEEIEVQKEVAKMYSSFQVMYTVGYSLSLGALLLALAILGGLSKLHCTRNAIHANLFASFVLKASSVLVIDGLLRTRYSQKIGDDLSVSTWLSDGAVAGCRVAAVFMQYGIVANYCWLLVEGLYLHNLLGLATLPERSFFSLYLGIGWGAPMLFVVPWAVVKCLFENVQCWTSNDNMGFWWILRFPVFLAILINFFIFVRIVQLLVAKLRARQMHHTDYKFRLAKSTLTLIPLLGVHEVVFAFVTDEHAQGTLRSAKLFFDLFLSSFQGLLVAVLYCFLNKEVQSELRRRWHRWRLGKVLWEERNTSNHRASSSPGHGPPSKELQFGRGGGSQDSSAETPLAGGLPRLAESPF

## CC[C@H](C)[C@H](NC(=O)[C@H](Cc1ccccc1)NC(=O)[C@@H](NC(=O)CNC(=O)[C@H](CCC(=O)O)NC(=O)C(C)(C)NC(=O)[C@@H](N)Cc1ccc(O)cc1)[C@@H](C)O)C(=O)N[C@@H](CO)C(=O)N[C@@H](CC(=O)O)C(=O)N[C@@H](Cc1ccc(O)cc1)C(=O)N[C@@H](CO)C(=O)N[C@H](C(=O)N[C@@](C)(CC(C)C)C(=O)N[C@@H](CC(C)C)C(=O)N[C@@H](CC(=O)O)C(=O)N[C@@H](CCCCN)C(=O)N[C@@H](CCCCNC(=O)COCCOCCNC(=O)COCCOCCNC(=O)CC[C@H](NC(=O)CCCCCCCCCCCCCCCCCCC(=O)O)C(=O)O)C(=O)N[C@@H](Cc1c[nH]cn1)C(=O)N[C@@H](CCC(N)=O)C(=O)NC(C)(C)C(=O)N[C@@H](CC(=O)O)C(=O)N[C@@H](Cc1ccccc1)C(=O)N[C@H](C(=O)N[C@@H](CCC(=O)O)C(=O)N[C@@H](Cc1c[nH]c2ccccc12)C(=O)N[C@@H](CC(C)C)C(=O)N[C@@H](CC(C)C)C(=O)N[C@@H](CCC(=O)O)C(=O)N[C@H](C(=O)NCC(=O)N1CCC[C@H]1C(=O)N[C@@H](CO)C(=O)N[C@@H](CO)C(=O)NCC(=O)N[C@@H](C)C(=O)N1CCC[C@H]1C(=O)N1CCC[C@H]1C(=O)N1CCC[C@H]1C(=O)N[C@@H](CO)C(N)=O)[C@@H](C)O)C(C)C)[C@@H](C)CC [Example 71] (H-Y[Aib]EGTFISDYSI[αMeL]LDKK([AEEA-AEEA-γGlu-C20 diacid])HQ[Aib]DFVEWLLETGPSSGAPPPS-NH2)
[1]
  EC50: > 5000 nM
[2]
  EC50: 0.0721 nM
[3]
  EC50: 581 nM

## CC[C@H](C)[C@H](NC(=O)[C@H](Cc1ccccc1)NC(=O)[C@@H](NC(=O)CNC(=O)[C@H](CCC(=O)O)NC(=O)C(C)(C)NC(=O)[C@@H](N)Cc1ccc(O)cc1)[C@@H](C)O)C(=O)N[C@@H](CO)C(=O)N[C@@H](CC(=O)O)C(=O)N[C@@H](Cc1ccc(O)cc1)C(=O)N[C@@H](CO)C(=O)N[C@H](C(=O)N[C@@](C)(CC(C)C)C(=O)N[C@@H](CC(C)C)C(=O)N[C@@H](CC(=O)O)C(=O)N[C@@H](CCCCN)C(=O)N[C@@H](CCCCNC(=O)COCCOCCNC(=O)COCCOCCNC(=O)CC[C@H](NC(=O)CCCCCCCCCCCCCCCCCCC(=O)O)C(=O)O)C(=O)N[C@@H](Cc1c[nH]cn1)C(=O)N[C@@H](CCC(N)=O)C(=O)NC(C)(C)C(=O)N[C@@H](CCC(=O)O)C(=O)N[C@@H](Cc1ccccc1)C(=O)N[C@H](C(=O)N[C@@H](CCC(=O)O)C(=O)N[C@@H](Cc1ccncc1)C(=O)N[C@@H](CC(C)C)C(=O)N[C@@H](CC(C)C)C(=O)N[C@@H](C)C(=O)N[C@H](C(=O)NCC(=O)N1CCC[C@H]1C(=O)N[C@@H](CO)C(=O)N[C@@H](CO)C(=O)NCC(=O)N[C@@H](C)C(=O)N1CCC[C@H]1C(=O)N1CCC[C@H]1C(=O)N1CCC[C@H]1C(=O)N[C@@H](CO)C(N)=O)[C@@H](C)O)C(C)C)[C@@H](C)CC [Example 58] (H-Y[Aib]EGTFISDYSI[αMeL]LDKK([AEEA-AEEA-γGlu-C20 diacid])HQ[Aib]EFVE[4Pal]LLATGPSSGAPPPS-NH2)
[1]
  EC50: > 5000 nM
[2]
  EC50: 0.0183 nM
[3]
  EC50: > 5000 nM

## CC[C@H](C)[C@H](NC(=O)[C@H](CO)NC(=O)[C@H](Cc1ccc(O)cc1)NC(=O)[C@H](CC(=O)O)NC(=O)[C@H](CO)NC(=O)[C@@H](NC(=O)[C@](C)(Cc1ccccc1F)NC(=O)[C@@H](NC(=O)CNC(=O)[C@H](CCC(=O)O)NC(=O)C(C)(C)NC(=O)[C@@H](N)Cc1ccc(O)cc1)[C@@H](C)O)[C@@H](C)CC)C(=O)N[C@@H](C)C(=O)N[C@@H](CC(C)C)C(=O)N[C@@H](CC(=O)O)C(=O)N[C@@H](CCCCN)C(=O)N[C@@H](CCCCNC(=O)COCCOCCNC(=O)COCCOCCNC(=O)CC[C@H](NC(=O)CCCCCCCCCCCCCCCCCCC(=O)O)C(=O)O)C(=O)N[C@@H](Cc1c[nH]cn1)C(=O)N[C@@H](CCC(N)=O)C(=O)NC(C)(C)C(=O)N[C@@H](CC(=O)O)C(=O)N[C@@H](Cc1ccccc1)C(=O)N[C@H](C(=O)N[C@@H](CCC(=O)O)C(=O)N[C@@H](Cc1ccncc1)C(=O)N[C@@H](CC(C)C)C(=O)N[C@@H](CC(C)C)C(=O)N[C@@H](CCC(=O)O)C(=O)NCC(=O)NCC(=O)N1CCC[C@H]1C(=O)N[C@@H](CO)C(=O)N[C@@H](CO)C(=O)NCC(=O)N[C@@H](C)C(=O)N1CCC[C@H]1C(=O)N1CCC[C@H]1C(=O)N1CCC[C@H]1C(=O)N[C@@H](CO)C(N)=O)C(C)C [Example 39] (H-Y[Aib]EGT[αMePhe(2-F)]ISDYSIALDKK([AEEA-AEEA-γGlu-C20 diacid])HQ[Aib]DFVE[4Pal]LLEGGPSSGAPPPS-NH2)
[1]
  EC50: 3330 nM
[2]
  EC50: 0.0112 nM
[3]
  EC50: > 5000 nM

## CC[C@H](C)[C@H](NC(=O)[C@H](CO)NC(=O)[C@H](Cc1ccc(O)cc1)NC(=O)[C@H](CC(=O)O)NC(=O)[C@H](CO)NC(=O)[C@@H](NC(=O)[C@](C)(CC(C)C)NC(=O)[C@@H](NC(=O)CNC(=O)[C@H](CCC(=O)O)NC(=O)C(C)(C)NC(=O)[C@@H](N)Cc1ccc(O)cc1)[C@@H](C)O)[C@@H](C)CC)C(=O)N[C@@H](C)C(=O)N[C@@H](CC(C)C)C(=O)N[C@@H](CC(=O)O)C(=O)N[C@@H](CCCCN)C(=O)N[C@@H](CCCCNC(=O)COCCOCCNC(=O)COCCOCCNC(=O)CC[C@H](NC(=O)CCCCCCCCCCCCCCCCCCC(=O)O)C(=O)O)C(=O)N[C@@H](Cc1c[nH]cn1)C(=O)N[C@@H](CCC(N)=O)C(=O)NC(C)(C)C(=O)N[C@@H](CCC(=O)O)C(=O)N[C@@H](Cc1ccccc1)C(=O)N[C@H](C(=O)N[C@@H](CC(N)=O)C(=O)N[C@@H](Cc1ccc(O)cc1)C(=O)N[C@@H](CC(C)C)C(=O)N[C@@H](CC(C)C)C(=O)N[C@@H](C)C(=O)N[C@H](C(=O)NCC(=O)N1CCC[C@H]1C(=O)N[C@@H](CO)C(=O)N[C@@H](CO)C(=O)NCC(=O)N[C@@H](C)C(=O)N1CCC[C@H]1C(=O)N1CCC[C@H]1C(=O)N1CCC[C@H]1C(=O)N[C@@H](CO)C(N)=O)[C@@H](C)O)C(C)C [Example 35] (H-Y[Aib]EGT[αMeL]ISDYSIALDKK([AEEA-AEEA-γGlu-C20 diacid])HQ[Aib]EFVNYLLATGPSSGAPPPS-NH2)
[1]
  EC50: > 5000 nM
[2]
  EC50: 0.0125 nM
[3]
  EC50: > 5000 nM

## CC[C@H](C)[C@H](NC(=O)[C@H](Cc1ccccc1)NC(=O)[C@@H](NC(=O)CNC(=O)[C@H](CCC(=O)O)NC(=O)C(C)(C)NC(=O)[C@@H](N)Cc1ccc(O)cc1)[C@@H](C)O)C(=O)N[C@@H](CO)C(=O)N[C@@H](CC(=O)O)C(=O)N[C@@H](Cc1ccc(O)cc1)C(=O)N[C@@H](CO)C(=O)N[C@H](C(=O)N[C@@](C)(CC(C)C)C(=O)N[C@@H](CC(C)C)C(=O)N[C@@H](CC(=O)O)C(=O)N[C@@H](CCCCN)C(=O)N[C@@H](CCCCNC(=O)COCCOCCNC(=O)COCCOCCNC(=O)CC[C@H](NC(=O)CCCCCCCCCCCCCCCCCCC(=O)O)C(=O)O)C(=O)N[C@@H](Cc1c[nH]cn1)C(=O)N[C@@H](CCC(N)=O)C(=O)NC(C)(C)C(=O)N[C@@H](CC(=O)O)C(=O)N[C@@H](Cc1ccccc1)C(=O)N[C@H](C(=O)N[C@@H](CCC(=O)O)C(=O)N[C@@H](Cc1c[nH]c2ccccc12)C(=O)N[C@@H](CC(C)C)C(=O)N[C@@H](CC(C)C)C(=O)N[C@@H](C)C(=O)NCC(=O)NCC(=O)N1CCC[C@H]1C(=O)N[C@@H](CO)C(=O)N[C@@H](CO)C(=O)NCC(=O)N[C@@H](C)C(=O)N1CCC[C@H]1C(=O)N1CCC[C@H]1C(=O)N1CCC[C@H]1C(=O)N[C@@H](CO)C(N)=O)C(C)C)[C@@H](C)CC [Example 54] (H-Y[Aib]EGTFISDYSI[αMeL]LDKK([AEEA-AEEA-γGlu-C20 diacid])HQ[Aib]DFVEWLLAGGPSSGAPPPS-NH2)
[1]
  EC50: > 5000 nM
[2]
  EC50: 0.054 nM
[3]
  EC50: > 5000 nM

## CC[C@H](C)[C@H](NC(=O)[C@H](CO)NC(=O)[C@H](Cc1ccc(O)cc1)NC(=O)[C@H](CC(=O)O)NC(=O)[C@H](CO)NC(=O)[C@@H](NC(=O)[C@](C)(Cc1ccccc1F)NC(=O)[C@@H](NC(=O)CNC(=O)[C@H](CCC(=O)O)NC(=O)[C@H](C)NC(=O)[C@@H](Cc1ccc(O)cc1)NC(C)=O)[C@@H](C)O)[C@@H](C)CC)C(=O)N[C@@H](C)C(=O)N[C@@H](CC(C)C)C(=O)N[C@@H](CC(=O)O)C(=O)N[C@@H](CCCCN)C(=O)N[C@@H](CCCCNC(=O)COCCOCCNC(=O)COCCOCCNC(=O)CC[C@H](NC(=O)CCCCCCCCCCCCCCCCCCC(=O)O)C(=O)O)C(=O)N[C@@H](Cc1c[nH]cn1)C(=O)N[C@@H](CCC(N)=O)C(=O)NC(C)(C)C(=O)N[C@@H](CCC(=O)O)C(=O)N[C@@H](Cc1ccccc1)C(=O)N[C@H](C(=O)N[C@@H](CC(N)=O)C(=O)N[C@@H](Cc1ccc(O)cc1)C(=O)N[C@@H](CC(C)C)C(=O)N[C@@H](CC(C)C)C(=O)N[C@@H](CCC(=O)O)C(=O)NCC(=O)NCC(=O)N1CCC[C@H]1C(=O)N[C@@H](CO)C(=O)N[C@@H](CO)C(=O)NCC(=O)N[C@@H](C)C(=O)N1CCC[C@H]1C(=O)N1CCC[C@H]1C(=O)N1CCC[C@H]1C(=O)N[C@@H](CO)C(N)=O)C(C)C [Example 33] (Ac-[dY]AEGT[αMePhe(2-F)]ISDYSIALDKK([AEEA-AEEA-γGlu-C20 diacid])HQ[Aib]EFVNYLLEGGPSSGAPPPS-NH2)
[1]
  EC50: > 5000 nM
[2]
  EC50: 0.0551 nM
[3]
  EC50: > 5000 nM
